Test results reported in patent US9238634B2, “Anti-inflammatory metabolite derived from omega-3-type fatty acid” (THE UNIVERSITY OF TOKYO, priority 2010, dated 2016).

Tested on: PMN (neutrophils)
Test: Zymosan peritonitis model, number of PMN (neutrophils) in intraperitoneal cells by FACS
Assay type: in vivo, C57BL/6J mice
Details: for PMN (mean % suppression) / Inhibition rate (PMN inhibition): caudal vein, zymosan 1 mg i.p.; for PMN (mean % suppression): two hours; for suppression of neutrophil infiltration: caudal vein (FIG. 4C); for Inhibition rate (PMN inhibition): cells recovered two hours later
Description: [FIG. 4A] […] The model was produced by inducing acute peritonitis by intraperitoneal administration of 1 mg of zymosan to C57BL6 mice. From the left, 17,18-EpETE, 5-hydroxy-17,18-epoxy-ETE (5hy-17,18-EpETE), 8-hydroxy-17,18-epoxy-ETE (8hy-17,18-EpETE), 12-hydroxy-17,18-epoxy-ETE (12hy-17,18-EpETE), and 15-hydroxy-17,18-epoxy-ETE (15hy-17,18-EpETE) respectively ([…]) were injected from a caudal vein of the mouse, and peritonitis was initiated by intraperitoneal administration of 1 mg of zymosan five minutes later. Intraperitoneal cells were recovered two hours later, and the results obtained by analyzing the number of PMN (neutrophils) of each by FACS are shown. […]
Zymosan peritonitis induced by intraperitoneal administration of zymosan, which is a cell wall component of yeast, was used as the inflammation model. This model is suited to the analysis of cytokines and eicosanoids since the intraperitoneal exudate can be recovered.
Zymosan A (Wako Pure Chemical Industries) was suspended in physiological saline to make 1 mg/mL and warmed for 30 minutes at 37° C. The zymosan A solution was then vortexed and returned to room temperature. A compound synthesized in a previous example was placed in a 1.5 mL tube and completely dried by driving off the solvent by nitrogen. It was then dissolved by adding physiological saline. […] Groups injected with only physiological saline (saline) or dexamethasone (10 μg/mouse), which is an anti-inflammatory steroid, were used as controls. Approximately two minutes later, 1 mL of zymosan A solution was administered intraperitoneally. Two hours later, cells that had exuded into the peritoneal cavity were recovered by tube by PBS, and the cells were counted. This tube was then centrifuged for five minutes at 1200 rpm, 4° C., and the supernatant was discarded. The precipitate (pellets) was suspended in PBS, and population analysis was performed by FACS three-color stain.
Peritoneal cells were adjusted to 2.5×10^6 cells/mL, and 200 μL was placed in a 5 mL round-bottomed tube (BD Falcon) (5×10^5 cells/tube). A quantity of 1 μL/tube of anti-mouse CD16/CD32 antibody (0.5 mg/mL; BD Biosciences) was added to this tube and incubated for 10 minutes at room temperature. Staining antibody mix (1.0 μL/sample of FITC-bound anti-mouse F4/80 antibody (0.5 mg/mL; eBioscience), 0.5 μL of PE-bound anti-mouse Ly-6G&Ly-6C antibody (0.2 mg/mL; eBioscience), and 0.5 μL of perCP-Cy5.5-bound anti-mouse CD11b antibody (0.2 mg/mL; eBioscience) per sample prepared by dilution by 50 μL of PBS) was added to this tube in a quantity of 50 μL/tube and incubated for 15 minutes at room temperature shielded from light. Measurement was performed by an FACS Calibur (BD Biosciences).

[1] = 100 ng, Table 3 (FIG. 4A), mean of 4-6 studies
[2] = 100 ng, Table 5 (FIG. 4B), mean of 3-4 studies
[3] = 100 ng, Table 4 (FIG. 4B), mean of 3-4 studies
[4] = 100 ng, Table 6 (FIG. 4D), mean of 6-11 studies

In the case of `CCC1OC1C/C=C\C/C=C\C=C\C(O)C/C=C\CCCC(=O)O` (stereo not shown) [8-hy-17,18-EpETE, 8-hydroxy-17,18-epoxy-eicosatetraenoic acid], the “PMN (mean % suppression)” value [1] was 10.4%.
For `CCC1OC1CC=CC=CC(O)CC=CCC=CCC=CCCC(=O)O` (stereo not shown) [13-hy-19,20-EpDPE, 13-hydroxy-19,20-epoxy-docosapentaenoic acid], the “PMN (mean % suppression)” value [2] was 12.0%.
`CCC1OC1CC=CCC=CCC=CCC=CCC=CCCC(=O)O` (stereo not shown) [19,20-EpDPE, 19,20-epoxydocosapentaenoic acid, reference compound] was tested, and the “PMN (mean % suppression)” value [3] was 0.0% and the “PMN (mean % suppression)” value [2] was 0.0%.
With `CCC1OC1CC(O)C=CC=CCC=CCC=CCC=CCCC(=O)O` (stereo not shown) [17-hy-19,20-EpDPE, 17-hydroxy-19,20-epoxy-docosapentaenoic acid] the “PMN (mean % suppression)” value [2] was 59.5%.
For `CCC1OC1CC=CCC(O)C=CC=CCC=CCCCC(=O)O` (stereo not shown) [12hy-17,18-EpETE, 12-hydroxy-17,18-epoxy-eicosatetraenoic acid], the “suppression of neutrophil infiltration” value (1 ng/mouse) was 30%, the “suppression of neutrophil infiltration” value (10 ng/mouse) was “approximately 40%” and the “PMN (mean % suppression)” value [1] was 48.4%. The “neutrophil-suppressing activity compared with dexamethasone control” value (1 or 10 ng/mouse versus 10 μg/mouse of dexamethasone) was “equivalent to or better than”, the “Inhibition rate (PMN inhibition)” value (dose 0.44 ng) was 28.8% and the “Inhibition rate (PMN inhibition)” value (dose 4.35 ng) was 39.3%. For the same molecule, the “Inhibition rate (PMN inhibition)” value (dose 43.48 ng) was 56.3%, the “Inhibition rate (PMN inhibition)” value (dose 434.8 ng) was 49.8% and the “dose dependence of PMN inhibition” value (doses 0.44 to 434.3 ng (FIG. 4C)) was “dose-dependent”.
In the case of `CCC1OC1CC(O)/C=C/C=C\C/C=C\C/C=C\CCCC(=O)O` (stereo not shown) [15-hy-17,18-EpETE, 15-hydroxy-17,18-epoxy-eicosatetraenoic acid], the “PMN (mean % suppression)” value [1] was 42.9%.
In the case of “17-hydroxy-19,20-epoxy-docosatetraenoic acid [17hy-19,20-EpDTE]”, the “suppression of neutrophil infiltration, result in words” value (“suppression … in words” for short) (100 ng) was “statistically significant effects” and the “PMN (mean % suppression)” value [4] was 23.28%.
`CCC1OC1CC=CCC(O)C=CC=CCC=CCC=CCCC(=O)O` (stereo not shown) [14-hy-19,20-EpDPE, 14-hydroxy-19,20-epoxy-docosapentaeonic acid] was tested, and the “PMN (mean % suppression)” value [2] was 57.3%.
For `CCC1OC1CC=CCC=CCC=CC=CC(O)CCCC(=O)O` (stereo not shown) [5-hy-17,18-EpETE, 5-hydroxy-17,18-epoxy-eicosatetraeonic acid], the “PMN (mean % suppression)” value [1] was 50.6%.
With `CCC1OC1CC=CCC=CCC=CC=CC(O)CC=CCCC(=O)O` (stereo not shown) [7-hy-19,20-EpDPE, 7-hydroxy-19,20-epoxy-docosapentaenoic acid] the “PMN (mean % suppression)” value [3] was 0.0%, the “suppression … in words” value (500 ng) was “tend to suppress neutrophil infiltration” and the “PMN (mean % suppression)” value (500 ng, Table 4 (FIG. 4B)) was 8.7%.
For `CCC1OC1C/C=C\C/C=C\C/C=C\C/C=C\CCCC(=O)O` (stereo not shown) [17,18-EpETE, 17,18-epoxyeicosatetraenoic acid, reference compound], the “PMN (mean % suppression)” value [1] was 0.0%.
For `CCC1OC1C/C=C\C/C=C\C=C\C(O)C/C=C\CCCCCC(=O)O` (stereo not shown) [10hy-19,20-EpDTE, 10-hydroxy-19,20-epoxy-docosatetraenoic acid], the “suppression … in words” value (100 ng) was “tendency toward suppression” and the “PMN (mean % suppression)” value [4] was 8.27%.
`CCC1OC1CC=CCC=CC=CC(O)CC=CCC=CCCC(=O)O` (stereo not shown) [10-hy-19,20-EpDPE, 10-hydroxy-19,20-epoxy-docosapentaenoic acid] was tested, and the “PMN (mean % suppression)” value [2] was 20.7%.
With `CCC1OC1CC=CCC=CCC=CCC=CC=CC(O)CCC(=O)O` (stereo not shown) [4-hy-19,20-EpDPE, 4-hydroxy-19,20-epoxy-docosapentaenoic acid] the “suppression … in words” value (100 ng) was “tend to suppress neutrophil infiltration”, the “PMN (mean % suppression)” value [3] was 2.1% and the “PMN (mean % suppression)” value (500 ng, Table 4 (FIG. 4B)) was 0.0%.
In the case of “14-hydroxy-19,20-epoxy-docosatetraenoic acid [14hy-19,20-EpDTE]”, the “suppression … in words” value (100 ng) was “statistically significant effects” and the “PMN (mean % suppression)” value [4] was 15.35%.
